Laboratory results published in patent US9919001B2, “Drug carrier having L-DNA nanocage structure” (Korea Institute of Science and Technology, priority 2013, dated 2018).

System: MCF-7/ADR cells
Assay: MTT cell viability assay (small molecule drug delivery)
Assay type: cell-based
Conditions: average of triplicate
Description: For DOX intercalation into the Cy5-labeled Td, DOX (1 mM) was mixed with the fluorescent DNA tetrahedron (10 μM) for 1 h and then run through NAP10 (G25-DNA grade column, GE Healthcare, USA) to remove the free DOX remaining in solution. The number of intercalated DOX molecules per DNA tetrahedron was calculated using the extinction coefficient of Cy5 at 633 nm (ϵ=230400) and that of DOX at 480 nm (ϵ=10410), respectively.
Drug-sensitive MCF-7 cells and drug-resistant MCF-7/ADR cells were used for cell viability assays. Cytotoxicity of Td was estimated using an MTT assay. Briefly, 8×10^3 mammalian cells were seeded with media (100 μL) in 96-well plates and cultured overnight to reach ˜80% confluency. The cells were then incubated in the fresh media containing Td at 37° C. for 6 h in the CO2 chamber. […] Then, thiazolyl blue tetrazolium bromide (MTT, TACS, Germany) solution (10 μL) was added to each well, followed by 4 h incubation at 37° C. Next, cells were lysed with 200 μL of dimethyl sulfoxide (DMSO, Sigma-Aldrich, USA). After overnight incubation at room temperature, the absorbance was measured at 580 nm using a microplate reader (SpectraMaxPlus™, Molecular Devices, USA).

Structure (SMILES): COc1cccc2c1C(=O)c1c(O)c3c(c(O)c1C2=O)C[C@@](O)(C(=O)CO)C[C@@H]3O[C@H]1C[C@H](N)[C@H](O)[C@H](C)O1 [Free-DOX, doxorubicin]
- Cell viability assay (%) (24 h): 98.9%
- Cell viability assay (%) (48 h): 93.6%
- Cell viability assay (%) (72 h): 89.2%
